# Assay results published in patent US12428406B2 (PMV Pharmaceuticals, Inc., priority 2019, dated 2025).
# Target: T1, p53 Y220C (Homo sapiens, UniProt P04637, Y220C)
# T1 construct: The recombinant protein was a truncation mutant containing only amino acids 94-312 of p53; made in house; host or cells: E. coli
# Test: In vitro DNA binding activity assay (HTRF / TR-FRET): stabilization of p53 Y220C and increase of its DNA binding activity
# Format: biochemical
# Details: recombinant His-tagged p53 Y220C DNA binding domain (aa 94-312), biotin-labeled consensus DNA, incubated at 27° C. or 29° C. for 60 min
# Summary of the method: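 Compounds from 4.5 mM DMSO stocks, 3-fold serial dilutions; room-temperature incubations of 15 and 20 min. SC150 = concentration raising DNA binding by 50% over no-compound control.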
# T1 sequence (P04637 94-312, change not shown): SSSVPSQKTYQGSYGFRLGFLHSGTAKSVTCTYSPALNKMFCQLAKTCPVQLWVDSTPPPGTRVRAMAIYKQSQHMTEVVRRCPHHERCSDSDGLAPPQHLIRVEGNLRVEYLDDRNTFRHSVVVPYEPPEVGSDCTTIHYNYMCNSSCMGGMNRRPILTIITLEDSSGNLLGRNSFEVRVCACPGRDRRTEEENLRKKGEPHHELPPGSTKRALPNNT
row,Compound,SC150 (concentration of the compound required to increase the DNA binding activity by 50%)
1,"CS(=O)(=O)c1ccc(NCC#Cc2cc3c(N[C@H]4CC[C@H](N5CC6(COC6)C5)CC4)cccc3n2CC(F)(F)F)c(C(F)(F)F)c1 [Compound 287A, 2-(3-{[4-methane-sulfonyl-2-(trifluoro-methyl)phenyl]amino}prop-1-yn-1-yl)-N-[(1R,4R)-4-{2-oxa-6-azaspiro[3,3]heptan-6-yl}cyclohexyl]-1-(2,2,2-trifluoroethyl)-1H-indol-4-amine]",+ (+ = 0 μM ≤ SC150 < 0.05 μM)
2,"COCCN(CCOC)[C@H]1CC[C@@H](Nc2cccc3c2cc(C#CCNc2ccc(S(N)(=O)=O)cc2OC)n3CC(F)(F)F)CC1 [Compound 62A, 3-methoxy-4-{[3-(4-{[(1S,4S)-4-[bis(2-methoxyethyl)amino]cyclo-hexyl]amino}-1-(2,2,2-trifluoroethyl)-1H-indol-2-yl)prop-2-yn-1-yl]amino}benzene-1-sulfonamide]",+ (+ = 0 μM ≤ SC150 < 0.05 μM)
3,"CCS(=O)(=O)c1ccc(NCC#Cc2cc3c(N[C@H]4CC[C@@H](N(C)C)CC4)cccc3n2CC(F)(F)F)c(OC)c1 [Compound 120A, (1S,4S)—N^4-[2-(3-{[4-(ethanesulfonyl)-2-methoxyphenyl]amino}prop-1-yn-1-yl)-1-(2,2,2-trifluoroethyl)-1H-indol-4-yl]-N^1,N^1-dimethylcyclohexane-1,4-diamine]",+ (+ = 0 μM ≤ SC150 < 0.05 μM)
4,COc1cc(S(C)(=O)=O)ccc1NCC#Cc1cc2c(N[C@H]3CCN(C)C[C@@H]3F)cccc2n1CC(F)(F)F [Compound 771A],+ (+ = 0 μM ≤ SC150 < 0.05 μM)
5,"CS(=O)(=O)c1ccc(NCC#Cc2cc3c(N[C@H]4CC[C@H](N5CCOCC5)CC4)cccc3n2CC(F)(F)F)c(OCC#N)c1 [Compound 185A, 2-(5-methanesulfonyl-2-{[3-(4-{[(1R,4R)-4-(morpholin-4-yl)cyclohexyl]amino}-1-(2,2,2-trifluoroethyl)-1H-indol-2-yl)prop-2-yn-1-yl]amino}phenoxy)acetonitrile]",+ (+ = 0 μM ≤ SC150 < 0.05 μM)
6,"COc1cc(S(N)(=O)=O)ccc1NCC#Cc1cc2c(N[C@H]3CC[C@H](N4CCCC(OC)C4)CC3)cccc2n1CC(F)(F)F (stereo partly drawn) [Compound 358A, 3-methoxy-4-{[3-(4-{[(1R,4R)-4-(3-methoxypiperidin-1-yl)cyclohexyl]amino}-1-(2,2,2-trifluoroethyl)-1H-indol-2-yl)prop-2-yn-1-yl]amino}benzene-1-sulfonamide]",+ (+ = 0 μM ≤ SC150 < 0.05 μM)
7,"CN(C)[C@H]1CC[C@@H](Nc2cccc3c2cc(C#CCNc2ccc(S(C)(=O)=O)cc2OCCO)n3CC(F)(F)F)CC1 [Compound 88A, 2-(5-methanesulfonyl-2-{[3-(4-{[(1S,4S)-4-(dimethylamino)cyclohexyl]amino}-1-(2,2,2-trifluoro-ethyl)-1H-indol-2-yl)prop-2-yn-1-yl]amino}phenoxy)ethan-1-ol]",+ (+ = 0 μM ≤ SC150 < 0.05 μM)
8,"NS(=O)(=O)c1ccc(NCC#Cc2cc3c(N[C@H]4CC[C@H](N5CC6(CCOCC6)C5)CC4)cccc3n2CC(F)(F)F)c(OCF)c1 [Compound 316A, 3-(fluoromethoxy)-4-{[3-(4-{[(1R,4R)-4-{7-oxa-2-azaspiro[3.5]nonan-2-yl}cyclo-hexyl]amino}-1-(2,2,2-trifluoroethyl)-1H-indol-2-yl)prop-2-yn-1-yl]amino}benzene-1-sulfonamide]",+ (+ = 0 μM ≤ SC150 < 0.05 μM)
9,"CCN(CC)[C@H]1CC[C@H](Nc2cccc3c2cc(C#CCNc2ccc(S(C)(=O)=O)cc2OC)n3CC(F)(F)F)CC1 [Compound 162A, (1R,4R)-N^1,N^1-diethyl-N4-(2-{3-[(4-methanesulfonyl-2-methoxyphenyl)amino]prop-1-yn-1-yl}-1-(2,2,2-trifluoroethyl)-1H-indol-4-yl)cyclohexane-1,4-diamine]",+ (+ = 0 μM ≤ SC150 < 0.05 μM)
10,CCC(=O)N1CCC(Nc2cccc3c2cc(C#CCNc2ccc(S(N)(=O)=O)cc2OC)n3CC(F)(F)F)CC1 [Compound 757A],+ (+ = 0 μM ≤ SC150 < 0.05 μM)
11,"COc1cc(C(=O)O)ccc1NCC#Cc1cc2c(N[C@H]3CCN(C)C[C@@H]3F)cccc2n1CC(F)(F)F [Compound 789A, 4-{[3-(4-{[(3S,4S)-3-fluoro-1-methylpiperidin-4-yl]amino}-1-(2,2,2-trifluoroethyl)-1H-indol-2-yl)prop-2-yn-1-yl]amino}-3-methoxybenzoic acid]",++ (++ = 0.05 μM ≤ SC150 < 0.1 μM)
12,"COc1cc(S(C)(=O)=O)ccc1NCC#Cc1cc2c(N[C@H]3C[C@@H](C)O[C@@H](C)C3)cccc2n1CC(F)(F)F [Compound 1027A, 2-{3-[(4-methanesulfonyl-2-methoxyphenyl)amino]prop-1-yn-1-yl}-N-[(2R,4R,6S)-2,6-dimethyloxan-4-yl]-1-(2,2,2-trifluoroethyl)-1H-indol-4-amine]",++ (++ = 0.05 μM ≤ SC150 < 0.1 μM)
13,"COCC(O)CN1CCC(Nc2cccc3c2cc(C#CCNc2ccc(S(N)(=O)=O)cc2O)n3CC(F)(F)F)CC1 (centres unmarked) [Compound 634A, 3-hydroxy-4-{[3-(4-{[1-(2-hydroxy-3-methoxypropyl)piperidin-4-yl]amino}-1-(2,2,2-trifluoroethyl)-1H-indol-2-yl)prop-2-yn-1-yl]amino}benzene-1-sulfonamide]",+ (+ = 0 μM ≤ SC150 < 0.05 μM)
14,"COc1cc(S(C)(=O)=O)ccc1NCC#Cc1cc2c(N[C@@H]3CCN4CCC[C@H]4C3)cccc2n1CC(F)(F)F [Compound 764A, N-[(7R,8aS)-octahydroindolizin-7-yl]-2-{3-[(4-methanesulfonyl-2-methoxyphfenyl)amino]prop-1-yn-1-yl}-1-(2,2,2-trifluoroethyl)-1H-indol-4-amine]",+ (+ = 0 μM ≤ SC150 < 0.05 μM)
15,"CC(=O)N1CCC(Nc2cccc3c2cc(C#CCNc2ccc(S(C)(=O)=O)cc2OCC#N)n3CC(F)(F)F)CC1 [Compound 729A, 2-{2-[(3-{4-[(1-acetylpiperidin-4-yl)amino]-1-(2,2,2-trifluoroethyl)-1H-indol-2-yl}prop-2-yn-1-yl)amino]-5-methanesulfonylphenoxy}acetonitrile]",+ (+ = 0 μM ≤ SC150 < 0.05 μM)
16,"COCCOc1cc(S(C)(=O)=O)ccc1NCC#Cc1cc2c(N[C@H]3CC[C@@H](N4CC5(COC5)C4)CC3)cccc2n1CC(F)(F)F [Compound 221A, 2-(3-{[4-methane-sulfonyl-2-(2-methoxyethoxy)phenyl]amino}prop-1-yn-1-yl)-N-[(1S,4S)-4-{2-oxa-6-azaspiro[3.3]heptan-6-yl}cyclohexyl]-1-(2,2,2-trifluoroethyl)-1H-indol-4-amine]",+ (+ = 0 μM ≤ SC150 < 0.05 μM)
17,"CS(=O)(=O)c1ccc(NCC#Cc2cc3c(NC4CCNCC4)cccc3n2CC(F)(F)F)c(OCC#N)c1 [Compound 461A, 2-{5-methanesulfonyl-2-[(3-{4-[(piperidin-4-yl)amino]-1-(2,2,2-trifluoroethyl)-1H-indol-2-yl}prop-2-yn-1-yl)amino]phenoxy}acetonitrile]",+ (+ = 0 μM ≤ SC150 < 0.05 μM)
18,COCC(O)CN1CCC(Nc2cccc3c2cc(C#CCNc2c(F)cc(S(C)(=O)=O)cc2OC)n3CC(F)(F)F)CC1 (centres unmarked) [Compound 714A],++++ (++++ = 0.2 μM ≤ SC150 < 1 μM)
19,"COc1cc(C(=O)O)c(F)cc1NCC#Cc1cc2c(N[C@H]3CC[C@H](N4CC5(COC5)C4)CC3)cccc2n1CC(F)(F)F [Compound 281A, 2-fluoro-5-methoxy-4-{[3-(4-{[(1R,4R)-4-{2-oxa-6-azaspiro[3.3]heptan-6-yl}cyclohexyl]amino}-1-(2,2,2-trifluoroethyl)-1H-indol-2-yl)prop-2-yn-1-yl]amino}benzoic acid]",+ (+ = 0 μM ≤ SC150 < 0.05 μM)
20,"COCC(O)CN1CCC(Nc2cccc3c2cc(C#CCNc2ccc(S(C)(=O)=O)cc2OC)n3CCF)CC1 (centres unmarked) [Compound 698A, 1-(4-{[1-(2-fluoroethyl)-2-{3-[(4-methanesulfonyl-2-methoxyphenyl)amino]prop-1-yn-1-yl}-1H-indol-4-yl]amino}piperidin-1-yl)-3-methoxypropan-2-ol]",+ (+ = 0 μM ≤ SC150 < 0.05 μM)
21,"COC[C@@H](O)CN1CCC(Nc2cccc3c2cc(C#CCNc2ccc(S(C)(=O)=O)cc2OCF)n3CC(F)(F)F)CC1 [Compound 666A, (2S)-1-(4-{[2-(3-{[2-(fluoromethoxy)-4-methanesulfonylphenyl]amino}prop-1-yn-1-yl)-1-(2,2,2-trifluoroethyl)-1H-indol-4-yl]amino}piperidin-1-yl)-3-methoxypropan-2-ol]",+ (+ = 0 μM ≤ SC150 < 0.05 μM)
22,"CNC(=O)c1ccc(NCC#Cc2cc3c(NC4CCN(C[C@@H](CO)OC)CC4)cccc3n2CC(F)(F)F)c(OC)c1 [Compound 650A, 4-({3-[4-({1-[(2S)-3-hydroxy-2-methoxypropyl]piperidin-4-yl}amino)-1-(2,2,2-trifluoroethyl)-1H-indol-2-yl]prop-2-yn-1-yl}amino)-3-methoxy-N-methylbenzamide]",+ (+ = 0 μM ≤ SC150 < 0.05 μM)
23,"COc1cc(S(C)(=O)=O)ccc1NCC#Cc1cc2c(N(C)C)cccc2n1CC(F)(F)F [Compound 1A, 2-{3-[(4-methanesulfonyl-2-methoxyphenyl)amino]prop-1-yn-1-yl}-N,N-dimethyl-1-(2,2,2-trifluoroethyl)-1H-indol-4-amine]",+++ (+++ = 0.1 μM ≤ SC150 < 0.2 μM)
